Reference: US20210322622A1, “COMPOSITIONS AND METHODS FOR PREPARATION OF COMPOSITE POLYMER FILMS ON NON-CONDUCTING SUBSTRATES, INCLUDING BANDAGES, AND THEIR USE FOR TREATING WOUNDS” (The Johns Hopkins University, priority 2018, published 2021)

Experiments:
S. aureus = experiment: In vitro zone of inhibition assay of coated K-wires; format: cell-based, Staphylococcus aureus; settings: 6 weeks room temperature, 6 weeks −20° C., 8 months
Text: A zone of inhibition assay was used as an additional assay to evaluate the in vitro release of antibiotic(s) from the composite coating. Tryptic soy agar bacterial plates were inoculated with S. aureus bacteria cells to yield a bacterial lawn after overnight culture. After bacterial inoculation and before culturing the plates, two identical titanium K-wires loaded with either 10 w/w % Lin, 10 w/w % Van, or 10 w/w % Dap alone, or in combination with Rif were placed in two separate areas on the plate. After culturing the plates at 37° C. for 24 hours, the antimicrobial activity of the eluded antibiotic(s) into the agar was measured as a zone of inhibition (diameter [mm]) of the bacterial growth around the K-wire.
Long-term efficacy of the antimicrobial activity was tested by storing electrospun pins at room temperature for 6 weeks, −20° C. for 6 weeks, and −80° C. for 8 months. Coated pins were protected from light during storage. These pins were then used in the same zone of inhibition assay as described hereinabove. These antimicrobial results were further confirmed with a two-week in vitro release study to determine release kinetics after storage.
Tryptic soy agar (TSA) bacterial plates were inoculated with S. aureus to yield a bacterial lawn after overnight culture. Before culturing the plates, two titanium K-wires each loaded with the same combination of antibiotics from each set were placed in two separate areas on the plate. After culturing at 37° C. for 24 hours, the zone of inhibition (ZOI) (diameter/mm) of bacterial growth were measured.

[1] = In vitro release of antibiotics from PLGA/PCL composite coatings on titanium K-wires (HPLC); format: physicochemical; settings: for release kinetics after storage: stored coated pins, two-week in vitro release
Experimental: (§1) The release rate of the polymer composite film was measured by HPLC. Drug release studies were conducted using coated pins created with the same loading parameters as those used for later in vivo testing (10% (w/w) drug combinations) electrospun for 60 seconds at injection rates of 0.5 mL/h from each needle. Release rate of antibiotics from the composite polymer coating was characterized by placing coated pins in 200 μL pH 7.4 PBS buffer and incubating at 37° C. in an aluminum film-covered incubator to prevent possible light-induced drug degradation. Release media was changed at fixed time points over a period of two weeks and stored in a −20° C. freezer until analysis. Drug concentrations in release media for each day were determined via reverse-phase HPLC using a C-18 column in an Alliance HPLC system and Waters 2996 PDA detector. The mobile phase was a mixture of acetonitrile and water both mixed with 0.1% TFA acid, which was run at a gradient from (15%/85%) to (40%/60%) for a total runtime of 15 minutes per sample for the elution of Van/Rif and Lin/Rif drug loading groups. Elution of the Dap/Rif loading group was conducted using a mobile phase of (49%/51%) of acetonitrile and water both mixed with 0.1% TFA acid for a total run time of 11 minutes per sample. Concentrations of the drugs were quantified using wavelengths of 343 nm for Rif, 254 nm for Lin, 280 nm for Van and 223 nm for Dap using prepared standard curves for all three drugs. […] Quantification was performed through the derivatization of Gentamicin with ninhydrin at 95° C. for 15 minutes and detection with a Biotek Synergy2 plate reader.
Long-term efficacy of the antimicrobial activity was tested by storing electrospun pins at room temperature for 6 weeks, −20° C. for 6 weeks, and −80° C. for 8 months. Coated pins were protected from light during storage. These pins were then used in the same zone of inhibition assay as described hereinabove.
Drug release studies were conducted using coated pins created with the same loading parameters as detailed above. Release kinetics of antibiotics from the composite coating were characterized by placing coated pins in 200 μL of phosphate buffer saline (PBS, pH 7.4) at 37° C. Release media was changed daily over a period of two weeks and stored at −20° C. until analysis. Drug concentrations in release media were measured on days 1, 2, 3, 5, 7, 10 and 14 using a Waters Alliance 2690 HPLC system (Waters Corporation, Milford, Mass.) equipped with an Accucore RP-MS C18 column (100 mm×2.1 mm; Thermo Fisher Scientific) and a Waters 2996 PDA detector. The elution was carried out with a mobile phase of water and acetonitrile both mixed with 0.1% TFA at a flow rate of 1 mL/min at ambient temperature using a linear gradient elution program of 85% water to […] in 15 minutes. Concentrations of the drugs were quantified using wavelengths for Van (280 nm), Lin (254 nm), Dap (224 nm) and Rif (263 nm).

S. aureus strain Xen36 = experiment: MIC of XEN36 for each antibiotic; format: cell-based, Staphylococcus aureus; settings: S. aureus XEN36; for MIC: Staphylococcus aureus, read-out: MIC of XEN36
Experimental: S. aureus strain Xen36 (PerkinElmer, Waltham, Mass.) previously derived from the clinical bacteremia isolate ATCC 49525 (Wright) was used in all experiments. (Francis et al., 2000). […] (Francis et al., 2000). Xen36 was prepared for inoculation as previously described. (Niska et al., 2013; Pribaz et al. (2012)).

[2] = Release kinetics of antibiotics from nanofiber-hydrogel composite sheet (HPLC); format: physicochemical
Text: A sheet device was designed with the goal of reinforcing the implant soft tissue pocket, as well as serving as a platform for the local delivery of antibiotics. The device was composed of a polycaprolactone (PCL) nanofiber sheet core embedded within a nanofiber-hydrogel composite scaffold. The nanofiber core was created via random-pattern electrospinning of PCL dissolved in an organic solvent. An antibiotic-containing version was created by adding 1% w/w of linezolid and rifampicin to the starting PCL solution. All materials containing rifampicin were protected from light exposure to minimize risk of degradation. Next a composite scaffold was prepared by interfacially bonding 500-nm PCL nanofibers suspended within a hyaluronic acid matrix. The nanofiber sheet was then embedded within the composite scaffold and shaped to form a 1-mm thick sheet device. Release kinetics of each antibiotic were assessed using high-performance liquid chromatography (HPLC).

[3] = In vitro release of Gentamicin from PLGA nanofibers / composite coating (ninhydrin); format: physicochemical
Experimental: The drug groups tested all included Rifampin (Rif), and the second drug was varied among linezolid (Lin), vancomycin (Van), and daptomycin (Dap). Each drug group combination of Rif and a secondary drug was tested with five pin groups as shown in Sets 1-3 (FIG. 1E). To load the antibiotics into the polymer nanofibers or film, Rif and Lin were dissolved in corresponding 10% w/w PLGA or PCL polymer solution prior to electrospinning. Van or Dap was first dissolved in dimethyl sulfoxide (DMSO) to form a 20% (w/w) solution before being added into their respective polymer solutions to form a suspension. This suspension can be electrospun in a relatively uniform fashion. Suspensions using water as a solvent were also produced using the model drug Gentamicin (Gent). Briefly, Gent was dissolved in DI water to form a 30% (w/w) solution before being added to a PLGA solution dissolved in HFIP. The suspension was stabilized through prolonged sonication and vortexing prior to electrospinning.
as §1, with “drugs. As an example, FIG. 3A and FIG. 3B show the in vitro release profiles of Lin and Rif from the composite coating on titanium K-wire implants.” for “drugs.”

Row | Molecule | antimicrobial activity (zone of inhibition) after storage versus freshly prepared coatings (S. aureus) | release kinetics after storage [1] | MIC (S. aureus strain Xen36) [µg/mL] | complete release from the nanofiber-hydrogel composite sheet [2] [days] | release from the nanofiber-hydrogel composite sheet within the first 24 hours [2] [%] | time Rif remains above the MIC, tuned by PCL molecular weight or PCL layer thickness ([1]; in vitro release from composite coating) [days] | MIC of XEN36 (S. aureus strain Xen36) | Gentamicin release profile ([3]; 50:50 PLGA) | release of Gentamicin above the MIC, controlled by polymer choice ([3]; 50:50 versus 75:25 PLGA) [days] | Gentamicin release profile ([3]; 75:25 PLGA) | Day 1 release of Gentamicin ([3]; PLGA nanofibers alone) | Day 1 release of Gentamicin ([3]; PLGA nanofibers embedded in PCL film layer) | time Gentamicin concentration at MIC could be sustained ([3]; in vitro release from PLGA nanofibers)
1 | CCCCCCCCCC(=O)N[C@@H](Cc1c[nH]c2ccccc12)C(=O)N[C@H](CC(N)=O)C(=O)N[C@@H](CC(=O)O)C(=O)N[C@@H]1C(=O)NCC(=O)N[C@@H](CCCN)C(=O)N[C@@H](CC(=O)O)C(=O)N[C@H](C)C(=O)N[C@@H](CC(=O)O)C(=O)NCC(=O)N[C@H](CO)C(=O)N[C@@H]([C@H](C)CC(=O)O)C(=O)N[C@@H](CC(=O)c2ccccc2N)C(=O)O[C@@H]1C [Dap, daptomycin] | no significant loss of antimicrobial activity | no difference in the release kinetics | 0.25 |  |  |  |  |  |  |  |  |  | 
2 | CC(=O)NC[C@H]1CN(c2ccc(N3CCOCC3)c(F)c2)C(=O)O1 [Lin, linezolid] | no significant loss of antimicrobial activity | no difference in the release kinetics | 2 | ≤ 3 | 70 |  |  |  |  |  |  |  | 
3 | CO[C@H]1/C=C/O[C@@]2(C)Oc3c(C)c(O)c4c(O)c(c(/C=N/N5CCN(C)CC5)c(O)c4c3C2=O)NC(=O)/C(C)=C\C=C\[C@H](C)[C@H](O)[C@@H](C)[C@@H](O)[C@@H](C)[C@H](OC(C)=O)[C@@H]1C [Rif, Rifampin] | no significant loss of antimicrobial activity | reduced after storage at room temperature for six weeks, but not when the pins were stored at −20 °C | 0.5 | ≤ 14 | 70 | 2 to 5 |  |  |  |  |  |  | 
4 | Gentamicin |  |  |  |  |  |  | roughly 10 μg/mL | sustained release | 2 to 14 | only a burst release | 80 % of total loading | less than 45 % of total loading | up to 14 days
